Data on ten compounds can be found in ChEMBL document CHEMBL1201862, “PubChem BioAssay data set” (2004).

Each structure is given as a SMILES string.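 In this assay, cells in 96-well plates receive the compound at five concentrations for 48 hours. Endpoints are linearly interpolated between the surrounding concentrations. GI50 is the concentration that inhibits growth by half.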 Active and inactive are the calls of the source. Rule as the data show it: active = GI50 up to about 1.1 µM and inactive = higher.

Among the test systems are UACC-257; PC-3; M14; Malme-3M; A498; SF-295; SN12C; CCRF-CEM; MCF7; U-251; IGROV-1; COLO 205; SK-OV-3; SNB-75; SF-539; SK-MEL-2; Hs-578T; SR; MOLT-4.
Test in all cases: NCI-60 cell line screen, 48 h

On to `C[C@@H]1CCC2[C@@H](C)[C@H](O[C@H]3O[C@@H]4O[C@@]5(C)CCC6[C@H](C)CCC([C@H]3C)[C@]64OO5)O[C@@H]3O[C@@]4(C)CCC1[C@@]23OO4` (stereo not given in full), for which the GI50 in the test with UACC-257 is 0.0912 µM (active); in the test with PC-3, 0.0148 µM (active); in the test with M14, 0.475 µM (active); with Malme-3M it was 0.635 µM (active); in the test on A498 it was 4.15 µM (inactive); in the test on SF-295, 0.32 µM (active). The GI50 in the test with SN12C is 0.186 µM (active); with CCRF-CEM, 0.0462 µM (active); with MCF7, 0.0925 µM (active); in the test with U-251, 0.0637 µM (active); with IGROV-1, 0.931 µM (active); in the test with COLO 205 it was 0.0388 µM (active). The GI50 is 0.452 µM (active) in the test with SK-OV-3; 0.188 µM (active) in the test on SNB-75; 0.264 µM (active) with SF-539; 0.401 µM (active) in the test with SK-MEL-2; 0.39 µM (active) in the test on Hs-578T; 0.0318 µM (active) in the test on SR. Further, the GI50 with MOLT-4 was 0.0546 µM (active).

For the compound `COc1cc(CNC(=O)CCCCCCCCCCSC#N)ccc1O`, the GI50 in the test with UACC-257 was 21 µM (inactive); in the test with PC-3, 6.82 µM (inactive); in the test on M14, 7.38 µM (inactive); in the test on Malme-3M it was 32.7 µM (inactive); in the test on A498 it was 15.1 µM (inactive); in the test with SF-295, 19.1 µM (inactive). The GI50 with CCRF-CEM is 8.13 µM (inactive); in the test on MCF7, 17.1 µM (inactive); with U-251 it was 16.8 µM (inactive); with IGROV-1 it was 4.59 µM (inactive); with COLO 205 it was 30.3 µM (inactive); in the test on SK-OV-3 it was 10.6 µM (inactive). The GI50 is 11 µM (inactive) in the test on SNB-75; 18 µM (inactive) in the test on SF-539; 14.1 µM (inactive) in the test with SK-MEL-2; 14.2 µM (inactive) with Hs-578T; 8.47 µM (inactive) in the test with SR; 3.94 µM (inactive) with MOLT-4.

Turning to `C/C=C/COc1cc(NC(=S)c2ccoc2C)ccc1OC`, the GI50 with UACC-257 is > 100 µM (inactive); in the test with PC-3, > 100 µM (inactive); with M14 it was > 100 µM (inactive); in the test on Malme-3M, 89.1 µM (inactive); in the test with A498 it was 49.3 µM (inactive); in the test with SF-295, 77.8 µM (inactive). Also, the GI50 in the test with SN12C is 62.1 µM (inactive); in the test on CCRF-CEM, > 100 µM (inactive); in the test on MCF7, > 100 µM (inactive); in the test on U-251, 51.4 µM (inactive); in the test on IGROV-1, 55.2 µM (inactive); with COLO 205, > 100 µM (inactive). For the same compound, the GI50 with SK-OV-3 was 61.1 µM (inactive); with SNB-75, 27.7 µM (inactive); with SF-539, 76.7 µM (inactive); with SK-MEL-2 it was > 100 µM (inactive); in the test on Hs-578T, 34 µM (inactive); in the test on SR, > 100 µM (inactive). In addition, in the test with MOLT-4, the GI50 was > 100 µM (inactive).

Turning to `O=c1[nH]nc(Cc2ccc(Cl)cc2)n1/N=C/c1c[nH]c2ccccc12`, the GI50 with UACC-257, in the test with PC-3, in the test with M14, in the test with Malme-3M, with A498 and in the test on SF-295 was > 100 µM (inactive) each time. The GI50 in the test on SN12C, in the test with CCRF-CEM, in the test with MCF7, in the test with U-251, in the test on IGROV-1 and with SK-OV-3 was > 100 µM (inactive) throughout. The GI50 with SNB-75, in the test on SF-539, in the test on SK-MEL-2, in the test with Hs-578T, in the test on SR and in the test on MOLT-4 was > 100 µM (inactive) throughout.

With `N=C(N)NS(=O)(=O)c1ccc(NNc2c3ccccc3nc3c(C(=O)Nc4ccc(S(N)(=O)=O)cc4)cccc23)cc1`, the GI50 in the test with UACC-257 was > 100 µM (inactive); with PC-3 it was 36.1 µM (inactive); in the test with M14 it was 83.4 µM (inactive); in the test on Malme-3M, 20.6 µM (inactive); in the test with A498, > 100 µM (inactive); in the test with SF-295 it was 48.2 µM (inactive). Besides, the GI50 in the test with SN12C is 43.8 µM (inactive); in the test on CCRF-CEM, 8.24 µM (inactive); with MCF7 it was 8.47 µM (inactive); in the test on U-251 it was 7.59 µM (inactive); with IGROV-1, 28.8 µM (inactive); with COLO 205, 31 µM (inactive). Further, the GI50 is > 100 µM (inactive) in the test on SK-OV-3; 26.4 µM (inactive) in the test with SNB-75; 26.6 µM (inactive) in the test on SF-539; 9.02 µM (inactive) in the test with SK-MEL-2; 18.4 µM (inactive) in the test on Hs-578T; 5.37 µM (inactive) with SR. Also, the GI50 in the test with MOLT-4 is 5.75 µM (inactive).

`COc1ccc(/C=C/C(=N/NC(=O)N/N=C(/C=C/c2ccc(OC)cc2)C(C)C)C(C)C)cc1`: the GI50 was > 100 µM (inactive) with UACC-257; 50.9 µM (inactive) in the test on PC-3; 44.4 µM (inactive) in the test on M14; 62.8 µM (inactive) in the test on Malme-3M; > 100 µM (inactive) with A498; 99.1 µM (inactive) in the test with SF-295. The GI50 in the test with SN12C was > 100 µM (inactive); in the test on CCRF-CEM, 48.9 µM (inactive); in the test with MCF7, 64.6 µM (inactive); in the test on U-251, 71 µM (inactive); in the test on IGROV-1, > 100 µM (inactive); in the test on COLO 205 it was 43.7 µM (inactive). Besides, the GI50 in the test with SK-OV-3, in the test with SNB-75, with SF-539, in the test on SK-MEL-2, in the test on Hs-578T and in the test on SR was > 100 µM (inactive) in each case. The GI50 in the test on MOLT-4 was 26.1 µM (inactive).

Take `O=C(N/N=C/c1ccc([N+](=O)[O-])o1)c1ccc(C(=O)N/N=C/c2ccc([N+](=O)[O-])o2)cc1`: the GI50 was 64.7 µM (inactive) in the test on PC-3; 35.5 µM (inactive) with M14; 21.2 µM (inactive) in the test with Malme-3M; 8.87 µM (inactive) in the test on A498; 40.4 µM (inactive) in the test on SF-295; 42.8 µM (inactive) in the test with SN12C. Also, the GI50 is 14.8 µM (inactive) in the test with CCRF-CEM; 15.7 µM (inactive) in the test with MCF7; 50.2 µM (inactive) in the test with U-251; 30.7 µM (inactive) with IGROV-1; 28.1 µM (inactive) in the test on COLO 205; > 100 µM (inactive) in the test on SK-OV-3. Moreover, the GI50 in the test on SNB-75 is > 100 µM (inactive); in the test with SF-539, 14.9 µM (inactive); in the test with SK-MEL-2, 74.5 µM (inactive); in the test on Hs-578T, > 100 µM (inactive); with SR it was 29.8 µM (inactive); in the test with MOLT-4, 23.8 µM (inactive).

With `CC(C)[Si](OC1=C(C(=O)N(C)c2ccccc2Cl)CCCC1)(C(C)C)C(C)C`, the GI50 in the test on UACC-257 was 10.2 µM (inactive); in the test on PC-3, 11.4 µM (inactive); in the test with M14 it was 16.1 µM (inactive); in the test with Malme-3M, 13 µM (inactive); in the test on A498, 16.9 µM (inactive); with SF-295 it was 7.52 µM (inactive). In addition, the GI50 is 12.7 µM (inactive) in the test on CCRF-CEM; 13.2 µM (inactive) with MCF7; 12.1 µM (inactive) with U-251; 16.9 µM (inactive) in the test with IGROV-1; 14.5 µM (inactive) in the test on COLO 205; 14.7 µM (inactive) with SK-OV-3. The GI50 in the test with SNB-75 is 14.3 µM (inactive); in the test with SF-539, 18 µM (inactive); with SK-MEL-2, 14.1 µM (inactive); in the test on Hs-578T, 13.3 µM (inactive); in the test with SR, 5.43 µM (inactive); with MOLT-4, 14.1 µM (inactive).

Regarding `C[C@@H]1OC2(O)[C@@H]3CCCN3C(=O)N(Cc3ccccc3)N2C1=O` (stereo not given in full), the GI50 in the test on UACC-257, with PC-3, in the test on M14, with Malme-3M, with A498 and with SF-295 was > 100 µM (inactive) in each case. The GI50 in the test on SN12C, in the test on CCRF-CEM, with MCF7, in the test on IGROV-1, in the test on COLO 205 and in the test on SK-OV-3 was > 100 µM (inactive) in each case. For the same compound, the GI50 was 0.331 µM (active) with SNB-75; > 100 µM (inactive) in the test on SF-539; > 100 µM (inactive) with SK-MEL-2; > 100 µM (inactive) in the test with Hs-578T; > 100 µM (inactive) with SR; > 100 µM (inactive) in the test with MOLT-4.

On to `Oc1[nH]c(Nc2cccc(Cl)c2)nc2ncnc1-2`, for which the GI50 in the test with UACC-257 was > 100 µM (inactive); in the test on PC-3, 25.4 µM (inactive); with M14 it was 95.7 µM (inactive); in the test with Malme-3M, > 100 µM (inactive); with A498 it was > 100 µM (inactive); in the test with SF-295, > 100 µM (inactive). For the same compound, the GI50 in the test with SN12C was > 100 µM (inactive); in the test on CCRF-CEM, 71.4 µM (inactive); with MCF7 it was > 100 µM (inactive); with U-251, > 100 µM (inactive); in the test with IGROV-1, 80.4 µM (inactive); in the test on COLO 205, > 100 µM (inactive). Also, the GI50 is > 100 µM (inactive) in the test on SK-OV-3; 30.5 µM (inactive) in the test with SNB-75; 82.8 µM (inactive) in the test with SF-539; 86.3 µM (inactive) with SK-MEL-2; 68.5 µM (inactive) with Hs-578T; > 100 µM (inactive) in the test with SR. For the same compound, in the test on MOLT-4, the GI50 is 38.6 µM (inactive).
